The text below walks through data of patent US9732075B2, “Benzimidazole-proline derivatives” (IDORSIA PHARMACEUTICALS LTD, priority 2012, dated 2017).

Each structure is given as a SMILES string.

In one experiment the target is human orexin-2 receptor (Homo sapiens (Human), UniProt O43614). Nature of the experiment: In vitro assay: intracellular calcium measurements (FLIPR), antagonistic activity. The experiment is classed as cell-based. The conditions noted are these: CHO cells expressing human orexin-2 receptor, orexin-A agonist, geometric mean, read-out: IC50 Ox2. Summed up: (§1)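 hOX1R/hOX2R CHO cells, fluo-4 AM + 5 mM probenecid, 50 min 37 °C then 30 min RT. Cpd 120 min, then orexin-A 3 nM final; FLIPR peak height vs vehicle. IC50, geometric mean of repeats.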
(Calcium assays in cells follow changes in intracellular calcium, usually with a dye or a luminescent sensor.)

The target of a further experiment is human orexin-1 receptor (Homo sapiens (Human), UniProt O43613). Described as above. The experiment is classed as cell-based. Conditions: CHO cells expressing human orexin-1 receptor, orexin-A agonist, geometric mean, read-out: IC50 Ox1. The procedure, abridged:
as §1

Sequence of human orexin-2 receptor (O43614 whole entry): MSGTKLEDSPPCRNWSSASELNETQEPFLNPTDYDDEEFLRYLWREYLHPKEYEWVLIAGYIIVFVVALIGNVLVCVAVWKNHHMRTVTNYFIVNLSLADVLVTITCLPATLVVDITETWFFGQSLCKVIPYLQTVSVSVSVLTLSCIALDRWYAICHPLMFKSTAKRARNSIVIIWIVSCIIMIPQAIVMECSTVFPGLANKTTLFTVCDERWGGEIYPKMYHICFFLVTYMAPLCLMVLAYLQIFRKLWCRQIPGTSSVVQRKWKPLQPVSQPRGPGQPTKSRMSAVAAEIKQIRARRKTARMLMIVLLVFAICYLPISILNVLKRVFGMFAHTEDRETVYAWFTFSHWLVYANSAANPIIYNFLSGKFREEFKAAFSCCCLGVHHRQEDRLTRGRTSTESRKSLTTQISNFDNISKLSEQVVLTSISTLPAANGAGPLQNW
Sequence of human orexin-1 receptor (O43613 whole entry): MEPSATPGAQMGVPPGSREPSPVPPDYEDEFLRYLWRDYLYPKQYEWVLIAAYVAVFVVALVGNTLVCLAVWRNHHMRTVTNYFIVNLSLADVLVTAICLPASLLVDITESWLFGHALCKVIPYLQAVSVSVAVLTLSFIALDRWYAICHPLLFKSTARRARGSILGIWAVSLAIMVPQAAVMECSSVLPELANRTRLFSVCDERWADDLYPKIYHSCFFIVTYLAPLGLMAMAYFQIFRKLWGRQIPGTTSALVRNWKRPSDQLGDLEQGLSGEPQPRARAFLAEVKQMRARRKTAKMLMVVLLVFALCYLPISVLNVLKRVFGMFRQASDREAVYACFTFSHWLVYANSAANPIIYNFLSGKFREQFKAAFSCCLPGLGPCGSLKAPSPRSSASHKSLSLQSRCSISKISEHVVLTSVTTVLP

Broadly, the IC50 is the concentration that inhibits the measured activity by half. As to `Cc1ccc(-n2nccn2)c(C(=O)N2CCC[C@@]2(C)c2nc3cc(Cl)c(Cl)cc3[nH]2)c1` [Ex. 5.7], the results for the IC50 on human orexin-2 receptor and on human orexin-1 receptor were 29 nM and 5 nM, respectively.

As to `Cc1ccc(-n2nccn2)c(C(=O)N2CCC[C@@]2(C)c2nc3cc(Br)ccc3[nH]2)c1` [Ex. 5.8], the IC50 is 129 nM at human orexin-2 receptor and 13 nM at human orexin-1 receptor.

In the case of `Cc1ccc(-n2nccn2)c(C(=O)N2CCC[C@@]2(C)c2nc3cc(C(F)(F)F)ccc3[nH]2)c1` [Ex. 5.9], the IC50 was 81 nM on human orexin-2 receptor and 8 nM at human orexin-1 receptor.

As for `Cc1ccc(-n2nccn2)c(C(=O)N2CCC[C@@]2(C)c2nc3cc(C)c(C)cc3[nH]2)c1` [Ex. 5.10], the values for the IC50 at human orexin-2 receptor and on human orexin-1 receptor were 16 nM and 6 nM, respectively.

For the compound `Cc1ccc(-n2nccn2)c(C(=O)N2CCC[C@@]2(C)c2nc3cc(Cl)ccc3[nH]2)c1` [Ex. 5.11], the IC50 on human orexin-2 receptor stood at 413 nM; at human orexin-1 receptor, 29 nM.

For `Cc1ccc(-n2nccn2)c(C(=O)N2CCC[C@@]2(C)c2nc3cc(F)c(Cl)cc3[nH]2)c1` [Ex. 5.12], the IC50 on human orexin-2 receptor worked out at 134 nM; on human orexin-1 receptor, 15 nM.

On to `Cc1ccc(-n2nccn2)c(C(=O)N2CCC[C@@]2(C)c2nc3cc(C(C)(C)C)ccc3[nH]2)c1` [Ex. 5.13], for which the IC50 on human orexin-2 receptor is 31 nM; on human orexin-1 receptor, 6 nM.

Regarding `Cc1ccc(-n2nccn2)c(C(=O)N2CCC[C@@]2(C)c2nc3c(Cl)cc(C(F)(F)F)cc3[nH]2)c1` [Ex. 5.14], the IC50 at human orexin-2 receptor came to 31 nM; at human orexin-1 receptor, 6 nM.

Turning to `Cc1ccc(-n2nccn2)c(C(=O)N2CCC[C@@]2(C)c2nc3cc(Cl)c(C)cc3[nH]2)c1` [Ex. 5.15], the IC50 on human orexin-2 receptor came to 22 nM; on human orexin-1 receptor, 5 nM.

`Cc1ccc(-n2nccn2)c(C(=O)N2CCC[C@@]2(C)c2nc3c(C)cc(C)cc3[nH]2)c1` [Ex. 5.16]: the IC50 on human orexin-2 receptor is 18 nM; at human orexin-1 receptor it was 16 nM.

`Cc1ccc(-n2nccn2)c(C(=O)N2CCC[C@@]2(C)c2nc3c(C(F)(F)F)cccc3[nH]2)c1` [Ex. 5.17]: the IC50 at human orexin-2 receptor was determined as 76 nM; on human orexin-1 receptor it was 11 nM.

With `Cc1ccc(-n2nccn2)c(C(=O)N2CCC[C@@]2(C)c2nc3c(Br)cccc3[nH]2)c1` [Ex. 5.18], the IC50 at human orexin-2 receptor amounted to 84 nM; at human orexin-1 receptor it was 23 nM.

For the compound `Cc1ccc(-n2nccn2)c(C(=O)N2CCC[C@@]2(C)c2nc3cc(OC(F)(F)F)ccc3[nH]2)c1` [Ex. 5.20], the IC50 on human orexin-2 receptor was 161 nM; at human orexin-1 receptor, 19 nM.

With `COc1cc2nc([C@]3(C)CCCN3C(=O)c3cc(C)ccc3-n3nccn3)[nH]c2cc1OC` [Ex. 5.21], the results for the IC50 on human orexin-2 receptor and on human orexin-1 receptor were 18 nM and 22 nM, respectively.

`Cc1ccc(-n2nccn2)c(C(=O)N2CCC[C@@]2(C)c2nc3cc(C(F)(F)F)c(F)cc3[nH]2)c1` [Ex. 5.22]: the concentration for half-maximal inhibition (IC50) at human orexin-2 receptor is 86 nM; at human orexin-1 receptor, 7 nM.

With `Cc1ccc(-n2nccn2)c(C(=O)N2CCC[C@@]2(C)c2nc3cc(F)c(Br)cc3[nH]2)c1` [Ex. 5.23], the IC50 at human orexin-2 receptor came out at 80 nM; on human orexin-1 receptor it was 15 nM.

With `Cc1ccc(-n2nccn2)c(C(=O)N2CCC[C@@]2(C)c2nc3cc(C(F)(F)F)c(Cl)cc3[nH]2)c1` [Ex. 5.24], the IC50 amounted to 9 nM at human orexin-2 receptor and 2 nM on human orexin-1 receptor.

On to `Cc1ccc(-n2nccn2)c(C(=O)N2CCC[C@@]2(C)c2nc3c(Br)cc(F)cc3[nH]2)c1` [Ex. 5.25], for which the half-maximal inhibitory concentration (IC50) is 81 nM at human orexin-2 receptor and 27 nM at human orexin-1 receptor.

`Cc1ccc(-n2nccn2)c(C(=O)N2CCC[C@@]2(C)c2nc3c(Cl)cccc3[nH]2)c1` [Ex. 5.26]: the IC50 at human orexin-2 receptor was found to be 197 nM; on human orexin-1 receptor it was 39 nM.

Turning to `Cc1ccc(-n2nccn2)c(C(=O)N2CCC[C@@]2(C)c2nc3c(F)c(F)ccc3[nH]2)c1` [Ex. 5.27], the IC50 is 507 nM at human orexin-2 receptor and 46 nM at human orexin-1 receptor.

On to `Cc1ccc(-n2nccn2)c(C(=O)N2CCC[C@@]2(C)c2nc3c(C)c(C)ccc3[nH]2)c1` [Ex. 5.28], for which the results for the IC50 at human orexin-2 receptor and on human orexin-1 receptor were 19 nM and 4 nM, respectively.

On to `Cc1ccc(-n2nccn2)c(C(=O)N2CCC[C@@]2(C)c2nc3c(C(C)C)cccc3[nH]2)c1` [Ex. 5.29], for which the half-inhibitory concentration (IC50) at human orexin-2 receptor is 59 nM; at human orexin-1 receptor it was 13 nM.

As for `Cc1ccc(-n2nccn2)c(C(=O)N2CCC[C@@]2(C)c2nc3cc(SC(F)(F)F)ccc3[nH]2)c1` [Ex. 5.30], the values for the IC50 at human orexin-2 receptor and on human orexin-1 receptor were 164 nM and 57 nM, respectively.

Take `COc1ccc(OC)c2[nH]c([C@]3(C)CCCN3C(=O)c3cc(C)ccc3-n3nccn3)nc12` [Ex. 5.31]: the half-maximal inhibitory concentration (IC50) at human orexin-2 receptor is 740 nM; on human orexin-1 receptor, 44 nM.

Regarding `COc1ccc2[nH]c([C@]3(C)CCCN3C(=O)c3cc(C)ccc3-n3nccn3)nc2c1` [Ex. 5.32], the results for the IC50 on human orexin-2 receptor and on human orexin-1 receptor were 46 nM and 90 nM, respectively.

As for `Cc1ccc(-n2nccn2)c(C(=O)N2CCC[C@@]2(C)c2nc3c4c(ccc3[nH]2)OCCO4)c1` [Ex. 5.33], the IC50 turned out to be 29 nM at human orexin-2 receptor and 25 nM at human orexin-1 receptor.

In the case of `Cc1c(Cl)ccc2[nH]c([C@]3(C)CCCN3C(=O)c3cc(Cl)ccc3-n3nccn3)nc12` [Ex. 5.34], the results for the IC50 at human orexin-2 receptor and at human orexin-1 receptor were 9 nM and 2 nM, respectively.

As for `Cc1c(Cl)ccc2[nH]c([C@]3(C)CCCN3C(=O)c3cc(OC(F)(F)F)ccc3-n3nccn3)nc12` [Ex. 5.35], the IC50 at human orexin-2 receptor is 99 nM; on human orexin-1 receptor, 102 nM.

Consider `COc1ccc(-n2nccn2)c(C(=O)N2CCC[C@@]2(C)c2nc3c(C)c(Cl)ccc3[nH]2)c1F` [Ex. 5.37], for which the results for the IC50 on human orexin-2 receptor and at human orexin-1 receptor were 16 nM and 10 nM, respectively.

Regarding `Cc1ccc(C(=O)N2CCC[C@@]2(C)c2nc3c(C)c(Cl)ccc3[nH]2)c(-n2nccn2)c1` [Ex. 5.38], the results for the IC50 at human orexin-2 receptor and at human orexin-1 receptor were 12 nM and 4 nM, respectively.

As to `COc1cc(C(=O)N2CCC[C@@]2(C)c2nc3c(C)c(Cl)ccc3[nH]2)c(-n2nccn2)cc1OC` [Ex. 5.39], the figures for the IC50 at human orexin-2 receptor and on human orexin-1 receptor were 20 nM and 36 nM, respectively.

On to `Cc1c(Cl)ccc2[nH]c([C@]3(C)CCCN3C(=O)c3cc(C(F)(F)F)ccc3-n3nccn3)nc12` [Ex. 5.40], for which the figures for the IC50 at human orexin-2 receptor and on human orexin-1 receptor were 91 nM and 44 nM, respectively.

On to `Cc1cc(C(=O)N2CCC[C@@]2(C)c2nc3c(C)c(Cl)ccc3[nH]2)c(-n2nccn2)cc1C` [Ex. 5.41], for which the IC50 at human orexin-2 receptor and on human orexin-1 receptor was 2 nM in each case.

As to `Cc1c(Cl)ccc2[nH]c([C@]3(C)CCCN3C(=O)c3ccccc3-n3cccn3)nc12` [Ex. 5.42], the IC50 came to 75 nM on human orexin-2 receptor and 49 nM on human orexin-1 receptor.

`Cc1ccc(-n2cccn2)c(C(=O)N2CCC[C@@]2(C)c2nc3c(C)c(Cl)ccc3[nH]2)c1` [Ex. 5.43]: the IC50 at human orexin-2 receptor was found to be 14 nM; at human orexin-1 receptor, 3 nM.

Regarding `Cc1ccc(-n2cccn2)c(C(=O)N2CCC[C@@]2(C)c2nc3c(C)c(Cl)ccc3[nH]2)n1` [Ex. 5.44], the IC50 turned out to be 29 nM at human orexin-2 receptor and 8 nM at human orexin-1 receptor.

As to `Cc1c(Cl)ccc2[nH]c([C@]3(C)CCCN3C(=O)c3cc(F)ccc3-n3nccn3)nc12` [Ex. 5.45], the IC50 at human orexin-2 receptor is 12 nM; on human orexin-1 receptor, 5 nM.

As to `Cc1c(Cl)ccc2[nH]c([C@]3(C)CCCN3C(=O)c3ccccc3-n3nccn3)nc12` [Ex. 5.46], the results for the IC50 on human orexin-2 receptor and at human orexin-1 receptor were 14 nM and 6 nM, respectively.

Consider `Cc1ccc(-n2nccn2)c(C(=O)N2CCC[C@@]2(C)c2nc3c(C)c(Cl)ccc3[nH]2)n1` [Ex. 5.47], for which the IC50 at human orexin-2 receptor worked out at 15 nM; on human orexin-1 receptor it was 5 nM.

For `Cc1c(Cl)ccc2[nH]c([C@]3(C)CCCN3C(=O)c3c(F)cccc3-n3nccn3)nc12` [Ex. 5.48], the figures for the IC50 on human orexin-2 receptor and at human orexin-1 receptor were 25 nM and 12 nM, respectively.

Consider `Cc1cccc2[nH]c([C@]3(C)CCCN3C(=O)c3cc(Cl)ccc3-n3nccn3)nc12` [Ex. 5.49], for which the IC50 at human orexin-2 receptor worked out at 114 nM; at human orexin-1 receptor, 85 nM.

As to `COc1ccc(-n2nccn2)c(C(=O)N2CCC[C@@]2(C)c2nc3c(C)cccc3[nH]2)c1` [Ex. 5.50], the IC50 amounted to 33 nM at human orexin-2 receptor and 49 nM at human orexin-1 receptor.

Take `Cc1cc(C(=O)N2CCC[C@@]2(C)c2nc3c(C)cccc3[nH]2)c(-n2nccn2)cc1C` [Ex. 5.51]: the IC50 at human orexin-2 receptor came out at 18 nM; on human orexin-1 receptor, 10 nM.

For the compound `Cc1cccc2[nH]c([C@]3(C)CCCN3C(=O)c3ccccc3-n3nccn3)nc12` [Ex. 5.52], the IC50 at human orexin-2 receptor came out at 43 nM; on human orexin-1 receptor, 107 nM.

Consider `Cc1cc2nc([C@]3(C)CCCN3C(=O)c3cc(Cl)ccc3-n3nccn3)[nH]c2cc1C` [Ex. 5.53], for which the IC50 amounted to 23 nM at human orexin-2 receptor and 24 nM at human orexin-1 receptor.

For the compound `COc1ccc(-n2nccn2)c(C(=O)N2CCC[C@@]2(C)c2nc3cc(C)c(C)cc3[nH]2)c1` [Ex. 5.54], the results for the IC50 at human orexin-2 receptor and on human orexin-1 receptor were 20 nM and 33 nM, respectively.

`COc1ccc(-n2nccn2)c(C(=O)N2CCC[C@@]2(C)c2nc3cc(C)c(C)cc3[nH]2)c1F` [Ex. 5.55]: the values for the IC50 at human orexin-2 receptor and on human orexin-1 receptor were 202 nM and 113 nM, respectively.

Turning to `Cc1ccc(C(=O)N2CCC[C@@]2(C)c2nc3cc(C)c(C)cc3[nH]2)c(-n2nccn2)c1` [Ex. 5.56], the IC50 came out at 15 nM at human orexin-2 receptor and 12 nM at human orexin-1 receptor.

`COc1cc(C(=O)N2CCC[C@@]2(C)c2nc3cc(C)c(C)cc3[nH]2)c(-n2nccn2)cc1OC` [Ex. 5.57]: the figures for the IC50 at human orexin-2 receptor and on human orexin-1 receptor were 55 nM and 57 nM, respectively.

Consider `Cc1cc(C(=O)N2CCC[C@@]2(C)c2nc3cc(C)c(C)cc3[nH]2)c(-n2nccn2)cc1C` [Ex. 5.58], for which the IC50 at human orexin-2 receptor came to 6 nM; at human orexin-1 receptor it was 3 nM.

Turning to `Cc1ccc(-n2cccn2)c(C(=O)N2CCC[C@@]2(C)c2nc3cc(C)c(C)cc3[nH]2)c1` [Ex. 5.59], the IC50 at human orexin-2 receptor amounted to 84 nM; at human orexin-1 receptor, 42 nM.

On to `Cc1cc2nc([C@]3(C)CCCN3C(=O)c3cc(F)ccc3-n3nccn3)[nH]c2cc1C` [Ex. 5.60], for which the IC50 on human orexin-2 receptor was found to be 54 nM; on human orexin-1 receptor, 156 nM.

In the case of `Cc1cc2nc([C@]3(C)CCCN3C(=O)c3ccccc3-n3nccn3)[nH]c2cc1C` [Ex. 5.61], the IC50 on human orexin-2 receptor stood at 26 nM; at human orexin-1 receptor it was 112 nM.
